Assays:
[1] = target: T1, Peroxisome proliferator-activated receptor gamma (Homo sapiens) (UniProt P37231); test: Agonist activity at human PPARgamma expressed in human HEK293 cells assessed as SHP promoter transactivation by luciferase reporter gene assay relative to vehicle-treated control; format: functional, cell-based
T1 sequence (whole entry): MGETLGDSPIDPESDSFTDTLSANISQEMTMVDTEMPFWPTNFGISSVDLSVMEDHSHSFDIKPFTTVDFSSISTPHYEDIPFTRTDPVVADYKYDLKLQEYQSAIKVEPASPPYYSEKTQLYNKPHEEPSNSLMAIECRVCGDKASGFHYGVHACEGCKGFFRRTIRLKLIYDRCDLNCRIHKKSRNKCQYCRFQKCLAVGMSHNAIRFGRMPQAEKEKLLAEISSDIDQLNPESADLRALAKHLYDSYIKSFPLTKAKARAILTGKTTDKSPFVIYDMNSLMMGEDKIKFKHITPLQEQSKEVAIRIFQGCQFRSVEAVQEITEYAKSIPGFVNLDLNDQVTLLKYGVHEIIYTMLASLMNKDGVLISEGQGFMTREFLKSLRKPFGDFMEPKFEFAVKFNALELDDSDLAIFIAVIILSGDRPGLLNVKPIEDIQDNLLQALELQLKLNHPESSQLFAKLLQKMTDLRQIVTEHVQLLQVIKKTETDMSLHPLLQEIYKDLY

[2] = target: T1, Peroxisome proliferator-activated receptor gamma (Homo sapiens); test: Agonist activity at human PPARgamma expressed in human HEK293 cells at 10 uM by luciferase reporter gene assay relative to vehicle-treated control; format: functional, cell-based
[3] = target: T1, Peroxisome proliferator-activated receptor gamma (Homo sapiens); test: Agonist activity at human PPARgamma expressed in human HEK293 cells assessed as SHP promoter transactivation at 10 uM by luciferase reporter gene assay relative to vehicle-treated control; format: functional, cell-based
[4] = target: T1, Peroxisome proliferator-activated receptor gamma (Homo sapiens); test: Agonist activity at human PPARgamma expressed in human HEK293 cells assessed as SHP promoter transactivation at 1 uM by luciferase reporter gene assay relative to vehicle-treated control; format: functional, cell-based
[5] = target: T1, Peroxisome proliferator-activated receptor gamma (Homo sapiens); test: Agonist activity at human PPARgamma expressed in human HEK293 cells assessed as ABCA1 promoter transactivation by luciferase reporter gene assay relative to vehicle-treated control; format: functional, cell-based
[6] = target: T1, Peroxisome proliferator-activated receptor gamma (Homo sapiens); test: Agonist activity at human PPARgamma expressed in human HEK293 cells assessed as ABCA1 promoter transactivation at 10 uM by luciferase reporter gene assay relative to vehicle-treated control; format: functional, cell-based
[7] = target: T1, Peroxisome proliferator-activated receptor gamma (Homo sapiens); test: Agonist activity at human PPARgamma expressed in human HEK293 cells assessed as ABCA1 promoter transactivation at 1 uM by luciferase reporter gene assay relative to vehicle-treated control; format: functional, cell-based
[8] = target: T2, Peroxisome proliferator-activated receptor gamma (Homo sapiens, UniProt P37231); test: Inhibition of fluormone binding to human PPARgamma LBD after 2 hrs by competitive fluorescence polarization assay
T2 sequence (P37231 whole entry): T1 sequence (whole entry)

[9] = target: T3, Peroxisome proliferator-activated receptor alpha (Homo sapiens) (UniProt Q07869); test: Transactivation of PPARalpha expressed in human HepG2 cells assessed as Sult2a1 expression at 10 uM by luciferase reporter gene assay relative to vehicle-treated control; format: cell-based
T3 sequence (whole entry): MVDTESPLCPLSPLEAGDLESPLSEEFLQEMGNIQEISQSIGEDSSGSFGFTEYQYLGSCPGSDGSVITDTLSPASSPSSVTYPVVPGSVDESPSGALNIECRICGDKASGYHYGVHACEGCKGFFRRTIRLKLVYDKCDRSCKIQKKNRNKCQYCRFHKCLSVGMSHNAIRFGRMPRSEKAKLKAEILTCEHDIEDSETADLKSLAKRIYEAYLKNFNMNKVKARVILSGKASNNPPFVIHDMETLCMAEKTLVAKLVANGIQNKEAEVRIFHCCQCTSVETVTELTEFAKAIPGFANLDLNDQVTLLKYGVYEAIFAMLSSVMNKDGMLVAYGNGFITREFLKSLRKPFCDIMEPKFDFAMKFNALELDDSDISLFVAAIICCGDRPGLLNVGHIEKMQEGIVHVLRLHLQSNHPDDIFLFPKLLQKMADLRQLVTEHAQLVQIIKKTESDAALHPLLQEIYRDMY

[10] = target: T3, Peroxisome proliferator-activated receptor alpha (Homo sapiens); test: Transactivation of PPARalpha expressed in human HepG2 cells assessed as Sult2a1 expression at 100 nM by luciferase reporter gene assay relative to vehicle-treated control; format: cell-based
[11] = target: T1, Peroxisome proliferator-activated receptor gamma (Homo sapiens); settings: HEK293
Description: Agonist activity at human PPARgamma expressed in human HEK293 cells assessed as ABCA1 promoter transactivation at 100 nM by luciferase reporter gene assay relative to vehicle-treated control

Activity [1]	RLU [2]	RLU [3]	RLU [4]	Activity [5]	RLU [6]	RLU [7]	IC50 [8]	RLU [9]	RLU [10]	RLU [11]	SMILES
Dose-dependent effect	1.5	3.5	2.8	Dose-dependent effect	2.9	2.1	55 µM	2.47	1.4		C=C1C(=O)O[C@@H]2C[C@H](C)[C@@]3(O)C[C@H](O)[C@@](C)(C[C@@H](OC(=O)C(C)C)[C@@H]12)O3 [TAGITININ A]
Dose-dependent effect	2	3.4		Dose-dependent effect	3.1	2.1	27 µM	2.33	1.4	1.6	C=C1C(=O)O[C@@H]2C[C@H](C)[C@@]3(O)CC[C@@](C)(C[C@@H](OC(=O)C(C)C)[C@@H]12)O3 [TIROTUNDIN]
								2.44			CCOC(=O)C(C)(C)Oc1ccc(Cl)cc1

Reference: ChEMBL document CHEMBL2163343, “Sesquiterpene lactones from Tithonia diversifolia act as peroxisome proliferator-activated receptor agonists” (Bioorg Med Chem Lett, 2012)
